From patent US20250243171A1, “QUINAZOLINE COMPOUNDS FOR TREATMENT OF DISEASE” (Arthrosi Therapeutics, Inc., priority 2021, published 2025) come the findings set out here.

Broadly, the EC50 is the midpoint of the concentration-response curve. Read a low EC50 as greater potency.

SMILES strings stand for the structures.

Holding throughout (assay): EC50 assay: Ba/F3 stable cell proliferation (CCK-8, 72 h)
Common to all, as to type: cell-based

Experiment [1] has as its target T1, Ba/F3 stable cells (Homo sapiens, UniProt P00533, DUP767-769, cells depend on it).
T1 construct: EC50 Ba/F3-EGFR V769-D770insASV; other: Ba/F3-EGFR V769-D770insASV cells, 72 h, CCK-8
The following applies: Ba/F3-EGFR V769-D770insASV cells. The protocol: (§1) 4,000 Ba/F3 stable cells/90 μL/well were plated onto 96-well cell culture plate (Grenier, Cat.No. 655180) and incubated at 37° C. with a humidified atmosphere of 5% CO2 for 2 h. Then the cells were treated with 10 μL compounds at serial titration. The final DMSO concentration is 0.1%. The cells treated with 0.1% DMSO (Vetec, Cat.No.V900090) as a positive control (Max), and medium with 0.1% DMSO was as a negative control (Min). Incubated the cells at 37° C. for 72 h. 10 μL the cell proliferation reagent CCK-8 (Dojindo, Cat.No. CK04 1000T) was added into each well and incubated the plate at 37° C. for 4 hours, the GD value was measured by SPECTRAmax plus (Molecular Devices) at 450 nm. Data processing with Graphpad 7.0.

Experiment [2] deals with T2, Ba/F3 stable cells (Homo sapiens, UniProt P00533, DUP768-770, cells depend on it).
T2 construct: EC50 Ba/F3-EGFR D770-N771insSVD; other: Ba/F3-EGFR D770-N771insSVD cells, 72 h, CCK-8
The following applies: Ba/F3-EGFR D770-N771insSVD cells. The protocol: as §1

For experiment [3], the target named is T3, Ba/F3 stable cells (Homo sapiens, UniProt P00533, DUP771-773, cells depend on it).
T3 construct: EC50 Ba/F3-EGFR H773-V774insNPH; other: Ba/F3-EGFR H773-V774insNPH cells, 72 h, CCK-8
The following applies: Ba/F3-EGFR H773-V774insNPH cells. The protocol: as §1

Experiment [4] has as its target T4, Ba/F3 stable cells (Homo sapiens, UniProt P00533, INS763FQEA, cells depend on it).
T4 construct: EC50 Ba/F3-EGFR A763-Y764insFQEA; other: Ba/F3-EGFR A763-Y764insFQEA cells, 72 h, CCK-8
The following applies: Ba/F3-EGFR A763-Y764insFQEA cells. The protocol:
as §1

Experiment [5] has as its target T5, Ba/F3 stable cells (Homo sapiens, UniProt P00533, T790M/L858R, cells depend on it).
T5 construct: EC50 Ba/F3-EGFR L858R-T790M; other: Ba/F3-EGFR L858R-T790M cells, 72 h, CCK-8
The following applies: Ba/F3-EGFR L858R-T790M cells. The protocol: as §1

For experiment [6], the target named is T6, Ba/F3 stable cells (Homo sapiens, UniProt P04626, DUP772-775, cells depend on it).
T6 construct: EC50 Ba/F3-HER2 A775-G776insYVMA; other: Ba/F3-HER2 A775-G776insYVMA cells, 72 h, CCK-8
The following applies: Ba/F3-HER2 A775-G776insYVMA cells. The protocol: as §1

T5 sequence (P00533 whole entry T790M/L858R): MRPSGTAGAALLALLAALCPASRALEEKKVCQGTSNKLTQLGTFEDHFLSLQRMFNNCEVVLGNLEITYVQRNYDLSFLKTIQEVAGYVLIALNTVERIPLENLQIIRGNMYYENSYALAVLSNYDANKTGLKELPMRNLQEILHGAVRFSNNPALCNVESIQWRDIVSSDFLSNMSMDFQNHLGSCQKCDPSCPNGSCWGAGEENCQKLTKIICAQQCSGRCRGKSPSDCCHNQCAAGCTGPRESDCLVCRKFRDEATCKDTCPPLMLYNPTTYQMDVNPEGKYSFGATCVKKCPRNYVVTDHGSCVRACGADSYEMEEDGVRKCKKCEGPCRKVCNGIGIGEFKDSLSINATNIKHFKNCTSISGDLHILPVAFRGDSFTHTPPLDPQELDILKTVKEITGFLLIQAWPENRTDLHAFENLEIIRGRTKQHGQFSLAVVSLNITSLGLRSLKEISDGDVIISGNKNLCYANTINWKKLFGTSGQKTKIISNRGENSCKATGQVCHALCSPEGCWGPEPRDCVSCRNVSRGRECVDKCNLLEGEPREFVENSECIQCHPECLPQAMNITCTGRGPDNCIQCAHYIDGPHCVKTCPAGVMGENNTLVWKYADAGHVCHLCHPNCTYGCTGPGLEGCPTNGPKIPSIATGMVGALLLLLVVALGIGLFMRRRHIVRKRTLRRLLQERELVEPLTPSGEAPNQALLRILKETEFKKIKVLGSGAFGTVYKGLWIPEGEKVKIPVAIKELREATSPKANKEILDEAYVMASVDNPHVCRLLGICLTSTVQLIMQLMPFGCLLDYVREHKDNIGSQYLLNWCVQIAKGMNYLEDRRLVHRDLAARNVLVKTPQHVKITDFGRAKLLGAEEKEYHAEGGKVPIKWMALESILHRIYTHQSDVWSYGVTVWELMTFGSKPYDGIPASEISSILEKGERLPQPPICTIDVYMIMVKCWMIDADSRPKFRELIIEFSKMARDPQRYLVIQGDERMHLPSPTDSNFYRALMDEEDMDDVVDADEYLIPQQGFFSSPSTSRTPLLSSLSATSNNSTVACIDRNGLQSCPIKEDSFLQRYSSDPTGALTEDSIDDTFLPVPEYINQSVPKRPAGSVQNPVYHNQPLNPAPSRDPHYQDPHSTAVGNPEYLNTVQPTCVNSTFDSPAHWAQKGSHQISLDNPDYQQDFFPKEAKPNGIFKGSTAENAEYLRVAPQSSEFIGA
T6 sequence (P04626 with tags, fused parts or gaps DUP772-775): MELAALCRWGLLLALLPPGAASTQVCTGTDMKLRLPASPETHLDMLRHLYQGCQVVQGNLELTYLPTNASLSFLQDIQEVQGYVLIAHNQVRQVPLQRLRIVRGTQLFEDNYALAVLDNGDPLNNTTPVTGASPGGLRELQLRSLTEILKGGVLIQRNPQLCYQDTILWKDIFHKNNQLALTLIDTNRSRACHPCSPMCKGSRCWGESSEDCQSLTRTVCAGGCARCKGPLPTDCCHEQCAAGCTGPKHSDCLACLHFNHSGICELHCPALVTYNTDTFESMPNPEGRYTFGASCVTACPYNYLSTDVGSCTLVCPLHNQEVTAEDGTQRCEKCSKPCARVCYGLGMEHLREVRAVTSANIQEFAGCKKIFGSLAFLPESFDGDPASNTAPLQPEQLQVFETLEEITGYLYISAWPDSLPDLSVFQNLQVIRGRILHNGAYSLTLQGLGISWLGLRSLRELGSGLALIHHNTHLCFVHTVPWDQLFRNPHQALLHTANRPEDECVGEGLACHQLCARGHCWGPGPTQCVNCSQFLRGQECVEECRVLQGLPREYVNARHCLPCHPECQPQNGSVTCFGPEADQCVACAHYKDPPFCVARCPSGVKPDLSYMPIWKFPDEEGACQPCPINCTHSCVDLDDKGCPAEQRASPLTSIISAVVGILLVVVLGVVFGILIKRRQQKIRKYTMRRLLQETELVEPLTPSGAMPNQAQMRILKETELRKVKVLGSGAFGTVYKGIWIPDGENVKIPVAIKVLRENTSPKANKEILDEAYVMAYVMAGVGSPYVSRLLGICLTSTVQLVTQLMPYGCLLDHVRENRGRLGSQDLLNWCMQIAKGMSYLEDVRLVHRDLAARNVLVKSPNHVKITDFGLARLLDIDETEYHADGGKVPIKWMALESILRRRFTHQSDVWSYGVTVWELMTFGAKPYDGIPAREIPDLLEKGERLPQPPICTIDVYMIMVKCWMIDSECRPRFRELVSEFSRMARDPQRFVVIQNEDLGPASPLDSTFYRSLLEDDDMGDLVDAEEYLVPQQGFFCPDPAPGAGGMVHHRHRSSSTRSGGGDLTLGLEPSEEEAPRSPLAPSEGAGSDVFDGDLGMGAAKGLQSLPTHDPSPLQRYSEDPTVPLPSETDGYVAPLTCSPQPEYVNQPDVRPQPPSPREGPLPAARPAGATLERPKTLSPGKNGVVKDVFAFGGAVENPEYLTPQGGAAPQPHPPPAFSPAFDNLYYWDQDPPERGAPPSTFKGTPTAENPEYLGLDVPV
T3 sequence (P00533 with tags, fused parts or gaps DUP771-773): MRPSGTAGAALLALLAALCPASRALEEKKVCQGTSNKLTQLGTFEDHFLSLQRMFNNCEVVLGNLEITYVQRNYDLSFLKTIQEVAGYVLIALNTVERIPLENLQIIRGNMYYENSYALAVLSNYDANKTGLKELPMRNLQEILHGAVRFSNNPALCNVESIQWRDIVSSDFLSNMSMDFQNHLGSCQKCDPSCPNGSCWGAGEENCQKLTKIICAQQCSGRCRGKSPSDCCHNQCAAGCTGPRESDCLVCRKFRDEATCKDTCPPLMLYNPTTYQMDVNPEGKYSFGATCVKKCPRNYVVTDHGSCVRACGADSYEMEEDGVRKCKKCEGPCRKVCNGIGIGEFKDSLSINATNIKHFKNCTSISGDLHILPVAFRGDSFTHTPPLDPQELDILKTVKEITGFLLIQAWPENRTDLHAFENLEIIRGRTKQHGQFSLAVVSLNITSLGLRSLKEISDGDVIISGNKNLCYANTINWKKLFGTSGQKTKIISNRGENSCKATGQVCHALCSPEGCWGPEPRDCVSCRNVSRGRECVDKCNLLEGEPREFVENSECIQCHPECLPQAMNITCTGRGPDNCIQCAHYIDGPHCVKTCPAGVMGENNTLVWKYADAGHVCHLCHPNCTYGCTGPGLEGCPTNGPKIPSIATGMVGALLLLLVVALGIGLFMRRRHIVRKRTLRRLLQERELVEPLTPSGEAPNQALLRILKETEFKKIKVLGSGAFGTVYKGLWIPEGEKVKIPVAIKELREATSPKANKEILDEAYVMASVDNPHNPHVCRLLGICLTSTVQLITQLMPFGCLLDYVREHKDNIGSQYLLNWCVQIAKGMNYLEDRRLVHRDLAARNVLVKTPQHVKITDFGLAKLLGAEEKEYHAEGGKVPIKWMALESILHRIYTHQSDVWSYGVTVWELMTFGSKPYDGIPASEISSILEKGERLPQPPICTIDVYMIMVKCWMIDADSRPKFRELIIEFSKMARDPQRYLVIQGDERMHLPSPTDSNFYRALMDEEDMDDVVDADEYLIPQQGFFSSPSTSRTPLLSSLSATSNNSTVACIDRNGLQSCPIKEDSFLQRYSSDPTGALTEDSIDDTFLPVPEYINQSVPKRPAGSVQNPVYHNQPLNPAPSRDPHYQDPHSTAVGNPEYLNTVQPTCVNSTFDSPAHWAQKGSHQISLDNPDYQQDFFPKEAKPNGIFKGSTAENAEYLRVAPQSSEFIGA
T4 sequence (P00533 with tags, fused parts or gaps INS763FQEA): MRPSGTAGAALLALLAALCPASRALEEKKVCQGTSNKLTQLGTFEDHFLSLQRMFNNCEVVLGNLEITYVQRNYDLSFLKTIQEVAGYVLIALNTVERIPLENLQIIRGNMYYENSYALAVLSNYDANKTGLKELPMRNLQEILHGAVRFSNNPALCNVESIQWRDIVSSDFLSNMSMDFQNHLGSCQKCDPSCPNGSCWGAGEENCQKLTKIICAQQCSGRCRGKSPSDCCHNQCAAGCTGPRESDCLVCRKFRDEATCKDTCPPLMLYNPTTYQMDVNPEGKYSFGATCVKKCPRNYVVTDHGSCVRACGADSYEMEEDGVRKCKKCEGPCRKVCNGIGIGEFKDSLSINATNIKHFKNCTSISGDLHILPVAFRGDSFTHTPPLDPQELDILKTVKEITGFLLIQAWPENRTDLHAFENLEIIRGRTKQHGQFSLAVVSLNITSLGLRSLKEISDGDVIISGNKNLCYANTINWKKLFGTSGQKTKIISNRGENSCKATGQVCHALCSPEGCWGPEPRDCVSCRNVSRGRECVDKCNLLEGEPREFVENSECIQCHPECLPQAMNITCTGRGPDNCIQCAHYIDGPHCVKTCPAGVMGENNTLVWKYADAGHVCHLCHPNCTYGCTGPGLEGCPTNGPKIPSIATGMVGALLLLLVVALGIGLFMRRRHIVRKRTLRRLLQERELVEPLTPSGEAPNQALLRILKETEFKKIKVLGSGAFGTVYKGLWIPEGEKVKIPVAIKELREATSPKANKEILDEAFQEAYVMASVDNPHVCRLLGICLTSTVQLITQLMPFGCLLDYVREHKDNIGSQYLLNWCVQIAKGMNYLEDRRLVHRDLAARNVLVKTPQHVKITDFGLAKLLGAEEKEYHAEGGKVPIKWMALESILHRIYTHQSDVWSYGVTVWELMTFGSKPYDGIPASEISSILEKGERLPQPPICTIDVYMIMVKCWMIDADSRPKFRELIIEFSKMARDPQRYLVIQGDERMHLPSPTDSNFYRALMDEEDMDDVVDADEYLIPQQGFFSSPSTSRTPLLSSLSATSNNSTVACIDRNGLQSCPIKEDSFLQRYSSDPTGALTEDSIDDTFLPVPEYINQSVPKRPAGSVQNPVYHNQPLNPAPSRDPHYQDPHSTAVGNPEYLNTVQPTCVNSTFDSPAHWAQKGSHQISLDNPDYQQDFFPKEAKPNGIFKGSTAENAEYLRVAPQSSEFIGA

As to `C=CC(=O)N1CC(c2cc3c(Nc4ccc(Cl)c(Cl)c4F)ncnc3cc2OC)C1` [Compound 1, 1-(3-(4-((3,4-dichloro-2-fluorophenyl)amino)-7-methoxyquinazolin-6-yl)azetidin-1-yl)prop-2-en-1-one], the EC50 on Ba/F3 stable cells [1], on Ba/F3 stable cells [2], on Ba/F3 stable cells [3], on Ba/F3 stable cells [4], at Ba/F3 stable cells [5] and on Ba/F3 stable cells [6] was at most 200 nM in each case.
`C=CC(=O)N1CC(c2cc3c(Nc4ccc(OCc5ccccc5)c(Cl)c4F)ncnc3cc2OC)C1` [Compound 2, 1-(3-(4-((4-(benzyloxy)-3-chloro-2-fluorophenyl)amino)-7-methoxyquinazolin-6-yl)azetidin-1-yl)prop-2-en-1-one]: the 50% effective concentration (EC50) on Ba/F3 stable cells [1], at Ba/F3 stable cells [2], on Ba/F3 stable cells [3], at Ba/F3 stable cells [4], on Ba/F3 stable cells [5] and at Ba/F3 stable cells [6] was over 1000 nM throughout.
Turning to `C=CC(=O)N1CCC(c2cc3c(Nc4ccc(Cl)c(Cl)c4F)ncnc3cc2OC)C1` (centres unmarked) [Compound 3, 1-(3-(4-((3,4-dichloro-2-fluorophenyl)amino)-7-methoxyquinazolin-6-yl)pyrrolidin-1-yl)prop-2-en-1-one], the concentration for a half-maximal effect (EC50) on Ba/F3 stable cells [1] is at most 200 nM; at Ba/F3 stable cells [2], at most 200 nM; at Ba/F3 stable cells [3], at most 200 nM; on Ba/F3 stable cells [4], at most 200 nM; on Ba/F3 stable cells [5], 200 to 1000 nM; on Ba/F3 stable cells [6], at most 200 nM.
Regarding `C=CC(=O)N1CC(c2cc3c(Nc4cccc5ccccc45)ncnc3cc2OC)C1` [Compound 4, 1-(3-(7-methoxy-4-(naphthalen-1-ylamino)quinazolin-6-yl)azetidin-1-yl)prop-2-en-1-one], the EC50 on Ba/F3 stable cells [1] was at most 200 nM; at Ba/F3 stable cells [2], 200 to 1000 nM; on Ba/F3 stable cells [3], at most 200 nM; at Ba/F3 stable cells [4] it was at most 200 nM; on Ba/F3 stable cells [5] it was 200 to 1000 nM; on Ba/F3 stable cells [6], at most 200 nM.
For `C=CC(=O)N1CC(c2cc3c(Nc4ccc5ccccc5c4)ncnc3cc2OC)C1` [Compound 5, 1-(3-(7-methoxy-4-(naphthalen-2-ylamino)quinazolin-6-yl)azetidin-1-yl)prop-2-en-1-one], the EC50 at Ba/F3 stable cells [1] was at most 200 nM; on Ba/F3 stable cells [2], 200 to 1000 nM; on Ba/F3 stable cells [3], 200 to 1000 nM; on Ba/F3 stable cells [4] it was at most 200 nM; on Ba/F3 stable cells [5], 200 to 1000 nM; at Ba/F3 stable cells [6], 200 to 1000 nM.
For the compound `C=CC(=O)N1CC(c2cc3c(Nc4ccc(F)c(Cl)c4)ncnc3cc2OC)C1` [Compound 6, 1-(3-(4-((3-chloro-4-fluorophenyl)amino)-7-methoxyquinazolin-6-yl)azetidin-1-yl)prop-2-en-1-one], the EC50 was at most 200 nM on Ba/F3 stable cells [1]; 200 to 1000 nM on Ba/F3 stable cells [2]; at most 200 nM on Ba/F3 stable cells [3]; at most 200 nM at Ba/F3 stable cells [4]; 200 to 1000 nM at Ba/F3 stable cells [5]; at most 200 nM on Ba/F3 stable cells [6].
`C=CC(=O)N1CC(c2cc3c(Nc4ccc(Cl)c5ccccc45)ncnc3cc2OC)C1` [Compound 7, 1-(3-(4-((4-chloronaphthalen-1-yl)amino)-7-methoxyquinazolin-6-yl)azetidin-1-yl)prop-2-en-1-one]: the EC50 on Ba/F3 stable cells [1] was 200 to 1000 nM; on Ba/F3 stable cells [2] it was over 1000 nM; at Ba/F3 stable cells [3], 200 to 1000 nM; at Ba/F3 stable cells [4] it was at most 200 nM; at Ba/F3 stable cells [5], at most 200 nM; at Ba/F3 stable cells [6], over 1000 nM.
As for `C=CC(=O)N1CC(c2ccc3ncnc(Nc4ccc(Cl)c(Cl)c4F)c3c2)C1` [Compound 8, 1-(3-(4-((3,4-dichloro-2-fluorophenyl)amino)quinazolin-6-yl)azetidin-1-yl)prop-2-en-1-one], the EC50 at Ba/F3 stable cells [1] is 200 to 1000 nM; at Ba/F3 stable cells [2], 200 to 1000 nM; at Ba/F3 stable cells [3], 200 to 1000 nM; at Ba/F3 stable cells [4], at most 200 nM; at Ba/F3 stable cells [5], over 1000 nM; at Ba/F3 stable cells [6] it was 200 to 1000 nM.
As to `C=CC(=O)N1CCC(c2ccc3ncnc(Nc4ccc(Cl)c(Cl)c4F)c3c2)CC1` [Compound 9, 1-(4-(4-((3,4-dichloro-2-fluorophenyl)amino)quinazolin-6-yl)piperidin-1-yl)prop-2-en-1-one], the EC50 at Ba/F3 stable cells [1] was over 1000 nM; on Ba/F3 stable cells [2], over 1000 nM; at Ba/F3 stable cells [3], over 1000 nM; at Ba/F3 stable cells [4], at most 200 nM; on Ba/F3 stable cells [5] it was over 1000 nM; at Ba/F3 stable cells [6], 200 to 1000 nM.
For the compound `C=CC(=O)N1CCC(c2cc3c(Nc4ccc(Cl)c(Cl)c4F)ncnc3cc2OC)CC1` [Compound 10, 1-(4-(4-((3,4-dichloro-2-fluorophenyl)amino)-7-methoxyquinazolin-6-yl)piperidin-1-yl)prop-2-en-1-one], the EC50 on Ba/F3 stable cells [1] is at most 200 nM; on Ba/F3 stable cells [2], 200 to 1000 nM; at Ba/F3 stable cells [3], 200 to 1000 nM; at Ba/F3 stable cells [4], at most 200 nM; on Ba/F3 stable cells [5], over 1000 nM; on Ba/F3 stable cells [6], 200 to 1000 nM.
Turning to `C=CC(=O)N1CC(c2cc3c(Nc4ccc5[nH]ccc5c4)ncnc3cc2OC)C1` [Compound 11, 1-(3-(4-((1H-indol-5-yl)amino)-7-methoxyquinazolin-6-yl)azetidin-1-yl)prop-2-en-1-one], the half-maximal effective concentration (EC50) was at most 200 nM at Ba/F3 stable cells [1]; 200 to 1000 nM at Ba/F3 stable cells [2]; at most 200 nM at Ba/F3 stable cells [3]; at most 200 nM on Ba/F3 stable cells [4]; over 1000 nM at Ba/F3 stable cells [5]; 200 to 1000 nM at Ba/F3 stable cells [6].
For the compound `C=CC(=O)N1CC(c2cc3c(Nc4ccc5c(c4)CCN5)ncnc3cc2OC)C1` [Compound 12, 1-(3-(4-(indolin-5-ylamino)-7-methoxyquinazolin-6-yl)azetidin-1-yl)prop-2-en-1-one], the 50% effective concentration (EC50) on Ba/F3 stable cells [1], at Ba/F3 stable cells [2], at Ba/F3 stable cells [3], on Ba/F3 stable cells [4], at Ba/F3 stable cells [5] and on Ba/F3 stable cells [6] was over 1000 nM each time.
Regarding `C=CC(=O)N1CC(c2cc3c(NCc4ccc(F)cc4)ncnc3cc2OC)C1` [Compound 13, 1-(3-(4-((4-fluorobenzyl)amino)-7-methoxyquinazolin-6-yl)azetidin-1-yl)prop-2-en-1-one], the concentration for a half-maximal effect (EC50) was 200 to 1000 nM at Ba/F3 stable cells [1]; over 1000 nM at Ba/F3 stable cells [2]; 200 to 1000 nM at Ba/F3 stable cells [3]; at most 200 nM on Ba/F3 stable cells [4]; over 1000 nM at Ba/F3 stable cells [5]; over 1000 nM on Ba/F3 stable cells [6].
As to `C=CC(=O)N1CC(c2cc3c(Nc4ccc(F)c5ccccc45)ncnc3cc2OC)C1` [Compound 14, 1-(3-(4-((4-fluoronaphthalen-1-yl)amino)-7-methoxyquinazolin-6-yl)azetidin-1-yl)prop-2-en-1-one], the half-maximal effective concentration (EC50) was at most 200 nM at Ba/F3 stable cells [1]; over 1000 nM on Ba/F3 stable cells [2]; at most 200 nM at Ba/F3 stable cells [3]; at most 200 nM at Ba/F3 stable cells [4]; at most 200 nM on Ba/F3 stable cells [5]; over 1000 nM on Ba/F3 stable cells [6].
For `C=CC(=O)N1CC(c2cc3c(NCc4cccc(Cl)c4)ncnc3cc2OC)C1` [Compound 15, 1-(3-(4-((3-chlorobenzyl)amino)-7-methoxyquinazolin-6-yl)azetidin-1-yl)prop-2-en-1-one], the concentration for a half-maximal effect (EC50) on Ba/F3 stable cells [1] was at most 200 nM; on Ba/F3 stable cells [2], 200 to 1000 nM; at Ba/F3 stable cells [3], 200 to 1000 nM; at Ba/F3 stable cells [4], at most 200 nM; on Ba/F3 stable cells [5], 200 to 1000 nM; on Ba/F3 stable cells [6], over 1000 nM.
For `C=CC(=O)N1CC(c2cc3c(Nc4ccc(F)c(Cl)c4F)ncnc3cc2OC)C1` [Compound 16, 1-(3-(4-((3-chloro-2,4-difluorophenyl)amino)-7-methoxyquinazolin-6-yl)azetidin-1-yl)prop-2-en-1-one], the 50% effective concentration (EC50) on Ba/F3 stable cells [1], on Ba/F3 stable cells [2], at Ba/F3 stable cells [3], on Ba/F3 stable cells [4], on Ba/F3 stable cells [5] and at Ba/F3 stable cells [6] was at most 200 nM throughout.
Turning to `C=CC(=O)N1CC(c2cc3c(Nc4ccc(Cl)c(Cl)c4F)ncnc3cc2O[C@H]2CCOC2)C1` [Compound 24, (S)-1-(3-(4-((3,4-dichloro-2-fluorophenyl)amino)-7-((tetrahydrofuran-3-yl)oxy)quinazolin-6-yl)azetidin-1-yl)prop-2-en-1-one], the EC50 at Ba/F3 stable cells [4] was 200 to 1000 nM.
On to `C=CC(=O)N1CCC(Oc2cc3c(Nc4ccc(Cl)c(Cl)c4F)ncnc3cc2OC)CC1` [Compound 133, 1-(4-((4-((3,4-dichloro-2-fluorophenyl)amino)-7-methoxyquinazolin-6-yl)oxy)piperidin-1-yl)prop-2-en-1-one], for which, on Ba/F3 stable cells [6], the EC50 is at most 200 nM.
